Experimental data as given in US20160339036A1, “Compound with Anti-Cancer Properties” (Velgene 3 Limited, priority 2013, published 2016).

Tests used:
[1] = tested on: tumour cell lines of Table 1 (CCRF-CEM, K562, MCF7, PANC1, B16, HT168M1, HCT116, PC3); test: Proliferation assay (MTT) on tumour cell lines; type: cell-based, human; mouse (B16); settings: 0.6, 2 and 6 μM, evaluated 24, 48 and 72 hours after treatment, One-Way ANOVA Post Hoc Scheffe Test, FIG. 4
Method: The first step was to examine the effect of T0504-7238 on the growth of tumour cells of the cell lines listed below in Table I. Our aim was to select the most therapy-sensitive cell lines as a preparation for the in vivo experiments.
Tumour cells were maintained in RPMI 1640 medium supplemented with 10% FBS (Sigma) and 1% penicillin/streptomycin solution (5,000 units penicillin and 5 mg streptomycin/ml) (Sigma) at 37° C. in a 5% CO2 atmosphere and used at confluence or at minimum 10^6 cells/ml density.
Single cell suspensions of different cell lines (Table 1) were put into 96-well microtiter plates for setting up 18-24 parallel samples per experimental group at 4×10^3 cell/well. The appropriate amount of T0504-7238 was suspended in a 3:1 DMSO: Solutol solution, which was then further diluted to the final concentration without the risk of precipitation. […]
Within each group samples were evaluated 24, 48 and 72 hours after treatment. […] After discarding of the culture medium plates were dried at room temperature, formazan crystals dissolved in dimethyl sulfoxide (100 μl/well) and the absorbance (OD) was measured at 570 nm using a microplate reader (Bio-Rad 550).
(§1) The results of our measurements were evaluated using One-Way ANOVA Post Hoc Scheffe Test.

HT168M1 human melanoma = test: HT168M1 human melanoma, subcutaneous implantation in CB17/scid mice; type: in vivo, CB17/scid female mice
Source text: (§2) Both the environment of the experimental animals and the execution of the actual experiments followed the up to date legislation and ethical regulations of Hungary. […] The experimental animals were derived from the The Jackson Laboratory (610 Main Street Bar Harbor, Me. 04609, USA). All personnel involved with the in vivo experiments are qualified to perform the described experiments.
2,5×10^5 human melanoma (HT168M1) cells, from the in vitro cell line, were subcutaneously (s.c.) implanted into the dorsal region of adult CB17/scid female mice with congenital immunodeficiency under diethyl ether narcosis. The animals were randomised, divided into two groups (11 treated, 11 control) and labelled with individual ear-markings on the 10th post-implantation day. From that day onwards, the treated group was intraperitoneally (i.p) treated with T0504-7238 (2 mg/kg-3:1 DMSO:Solutol solution) once every second day. The control group was also treated with identical frequency to the treatment group i.p. injecting appropriately diluted 3:1 DMSO:Solutol solution. The animals were weighed weekly and individual changes were recorded using the ear-marking system. The tumour diameter was also individually recorded from the earliest palpable stage using a pair of compasses (caliper). Tumour volume was estimated usin the π/6×a×b^2 formula, where ‘a’ is the longer and ‘b’ is the shorter diameter. The experiment was terminated on the 41st post-implantation day—the animals were sacrificed using Nembutal. The evaluation was based on the weight of the primary tumour.
as §1

[2] = tested on: PC3 human prostate carcinoma; test: PC3 human prostate tumour, implantation into prostate of CB17/scid mice; type: in vivo, CB17/scid male mice; settings: 2 mg/kg i.p. once every second day from 13th post-implantation day, evaluated on 31st day
Source text: as §2
The abdominal wall of CB17/scid male mice was opened at the level of the prostate under Nembutal anaesthesia (75 mg/kg). A single cell suspension (2.15×10^5 cell/20 μl) of the PC3 human prostate carcinoma cell line was implanted into the prostate using micro syringe (Hamilton). The abdominal was closed with a single layer of surgical thread (3/0 Vicryl), the skin was closed with outwards turning wound edges using surgical clips (Michel Wound Clips, 7.5 mm). After the wound healing completed, the animals were randomised, divided into two groups (9 treated, 9 control) and labelled with individual ear-markings on the 13th post-implantation day. From that day onwards, the treated group was intraperitoneally (i.p) treated with T0504-7238 (2 mg/kg-3:1 DMSO:Solutol solution) once every second day. […] The animals were weighed weekly and individual changes were recorded using the ear-marking system. […]
as §1

Compound: O=C1C(Cl)=C(N2CCOCC2)C(=O)c2ccc(S(=O)(=O)N3CCOCC3)cc21 [T0504-7238]
- growth of all tumour cell lines [1]: dose-dependently, significantly decreased the growth
- detectable tumor entirely necrotic, share of cases in treated group (HT168M1 human melanoma; 2 mg/kg i.p. once every second day from 10th post-implantation day, evaluated on 41st day): 20%
- weight of the tumor, treated vs control group (HT168M1 human melanoma; 2 mg/kg i.p. once every second day from 10th post-implantation day, evaluated on 41st day, FIG. 5): significantly lower (p=0.026)
- average body weight of treated animals vs controls at the time of evaluation (HT168M1 human melanoma; 2 mg/kg i.p. once every second day, 41st post-implantation day): this difference was not significant
- body weight, treated vs control animals at the time of evaluation ([2]; FIG. 6): no significant difference
- average weight of the primary tumour, treated vs control group ([2]; FIG. 7): lower in the treated group
